Experimental data as given in PubChem BioAssay AID1259407 (Chemical Carcinogenesis Research Information System (CCRIS), 2018).
Active and inactive are the calls of the source. How the calls were made is not given here.

System: CCRIS mutagenicity, Ames/micronucleus/aberration tests
Experiment: CCRIS mutagenicity studies

Compound: Nc1c2ccccc2nc2ccccc12
- mutagenic call (Test System: AMES SALMONELLA TYPHIMURIUM, Strain/Indicator: TA1537, Metabolic Activation: NONE, Method: STANDARD PLATE): active; positive
- mutagenic call (Test System: AMES SALMONELLA TYPHIMURIUM, Strain/Indicator: TA1537, Metabolic Activation: RAT LIVER S-9, AROCLOR 1254, Method: FLUCTUATION (MICROTITER)): active; positive
- mutagenic call (Test System: AMES SALMONELLA TYPHIMURIUM, Strain/Indicator: TA1537, Metabolic Activation: RAT, LIVER, S-9, AROCLOR 1254 (10%), Method: PREINCUBATION): active; positive
- mutagenic call (Test System: AMES SALMONELLA TYPHIMURIUM, Strain/Indicator: TA1537, Metabolic Activation: RAT, LIVER, S-9, AROCLOR 1254, Method: SPIRAL ASSAY): active; positive
- mutagenic call (Test System: AMES SALMONELLA TYPHIMURIUM, Strain/Indicator: TA1537, Metabolic Activation: RAT, LIVER, S-9, AROCLOR 1254, Method: STANDARD PLATE): active; positive
- mutagenic call (Test System: AMES SALMONELLA TYPHIMURIUM, Strain/Indicator: TA1537, Metabolic Activation: RAT, LIVER, S-9, TETRACHLOROBIPHENYL, Method: PREINCUBATION): active; positive
- mutagenic call (Test System: AMES SALMONELLA TYPHIMURIUM, Strain/Indicator: TA1538, Metabolic Activation: NONE, Method: PREINCUBATION): inactive; negative
- mutagenic call (Test System: AMES SALMONELLA TYPHIMURIUM, Strain/Indicator: TA1538, Metabolic Activation: RAT, LIVER, S-9, TETRACHLOROBIPHENYL, Method: PREINCUBATION): inactive; negative
- mutagenic call (Test System: AMES SALMONELLA TYPHIMURIUM, Strain/Indicator: TA1977, Metabolic Activation: NONE, Method: PREINCUBATION): active; positive
- mutagenic call (Test System: AMES SALMONELLA TYPHIMURIUM, Strain/Indicator: TA1977, Metabolic Activation: RAT, LIVER, S-9, TETRACHLOROBIPHENYL, Method: PREINCUBATION): active; positive
- mutagenic call (Test System: AMES SALMONELLA TYPHIMURIUM, Strain/Indicator: TA7001, Metabolic Activation: NONE, Method: FLUCTUATION (MICROTITER)): inactive; negative
- mutagenic call (Test System: AMES SALMONELLA TYPHIMURIUM, Strain/Indicator: TA7002, Metabolic Activation: NONE, Method: FLUCTUATION (MICROTITER)): inactive; negative
- mutagenic call (Test System: AMES SALMONELLA TYPHIMURIUM, Strain/Indicator: TA7003, Metabolic Activation: NONE, Method: FLUCTUATION (MICROTITER)): inactive; negative
- mutagenic call (Test System: AMES SALMONELLA TYPHIMURIUM, Strain/Indicator: TA7004, Metabolic Activation: NONE, Method: FLUCTUATION (MICROTITER)): inactive; negative
- mutagenic call (Test System: AMES SALMONELLA TYPHIMURIUM, Strain/Indicator: TA7005, Metabolic Activation: NONE, Method: FLUCTUATION (MICROTITER)): inactive; negative
- mutagenic call (Test System: AMES SALMONELLA TYPHIMURIUM, Strain/Indicator: TA7006, Metabolic Activation: NONE, Method: FLUCTUATION (MICROTITER)): inactive; negative
- mutagenic call (Test System: CHINESE HAMSTER OVARY, Strain/Indicator: CHO-K1-BH4 (HGPRT), Metabolic Activation: NONE, Method: SUSPENSION/PLATE): inactive; negative
- mutagenic call (Test System: CHINESE HAMSTER OVARY, Strain/Indicator: CHO-K1-BH4 (HGPRT), Metabolic Activation: RAT, LIVER, S-9, AROCLOR, Method: SUSPENSION/PLATE): inactive; negative
- mutagenic call (Test System: CHINESE HAMSTER V-79, Strain/Indicator: V-79/6-THIOGUANINE, Metabolic Activation: NONE, Method: FLASK ASSAY): inactive; negative
- mutagenic call (Test System: E. COLI, Strain/Indicator: WP2 UVRA, Metabolic Activation: HAMSTER, LIVER, S-9, AROCLOR 1254, Method: STANDARD PLATE): inactive; negative
- mutagenic call (Test System: E. COLI, Strain/Indicator: WP2 UVRA, Metabolic Activation: HAMSTER, LIVER, S-9, Method: STANDARD PLATE): inactive; negative
- mutagenic call (Test System: E. COLI, Strain/Indicator: WP2 UVRA, Metabolic Activation: MOUSE, LIVER, S-9, AROCLOR 1254, Method: STANDARD PLATE): inactive; negative
- mutagenic call (Test System: E. COLI, Strain/Indicator: WP2 UVRA, Metabolic Activation: MOUSE, LIVER, S-9, Method: STANDARD PLATE): inactive; negative
- mutagenic call (Test System: E. COLI, Strain/Indicator: WP2 UVRA, Metabolic Activation: NONE, Method: STANDARD PLATE): inactive; negative
- mutagenic call (Test System: E. COLI, Strain/Indicator: WP2 UVRA, Metabolic Activation: RAT, LIVER, S-9, AROCLOR 1254, Method: STANDARD PLATE): inactive; negative
- mutagenic call (Test System: E. COLI, Strain/Indicator: WP2 UVRA, Metabolic Activation: RAT, LIVER, S-9, Method: STANDARD PLATE): inactive; negative
- mutagenic call (Test System: E. coli, Strain/Indicator: KKi (wild-type), KK5 (recA56) and KK6 (uvrA6), Metabolic Activation: None, Method: Viable cells scored on LB-plates after 18 hr incubation): active; positive in all 3 strains (most common mutations minus frameshifts in repetitive
- mutagenic call (Test System: UDS RAT HEPATOCYTES, Strain/Indicator: THY INCORP, Metabolic Activation: NONE, Method: AUTORADIOGRAPHY (SERUM-FREE MEDIA)): inactive; negative
